Columns and labels:
[1] = target: HDAC8 (Homo sapiens (Human), UniProt Q9BY41); conditions: read-out: HDAC8 IC50
[2] = target: HDAC1 (Homo sapiens (Human), UniProt Q13547); conditions: read-out: HDAC1 IC50
HDAC1, sequence (Q13547 whole entry): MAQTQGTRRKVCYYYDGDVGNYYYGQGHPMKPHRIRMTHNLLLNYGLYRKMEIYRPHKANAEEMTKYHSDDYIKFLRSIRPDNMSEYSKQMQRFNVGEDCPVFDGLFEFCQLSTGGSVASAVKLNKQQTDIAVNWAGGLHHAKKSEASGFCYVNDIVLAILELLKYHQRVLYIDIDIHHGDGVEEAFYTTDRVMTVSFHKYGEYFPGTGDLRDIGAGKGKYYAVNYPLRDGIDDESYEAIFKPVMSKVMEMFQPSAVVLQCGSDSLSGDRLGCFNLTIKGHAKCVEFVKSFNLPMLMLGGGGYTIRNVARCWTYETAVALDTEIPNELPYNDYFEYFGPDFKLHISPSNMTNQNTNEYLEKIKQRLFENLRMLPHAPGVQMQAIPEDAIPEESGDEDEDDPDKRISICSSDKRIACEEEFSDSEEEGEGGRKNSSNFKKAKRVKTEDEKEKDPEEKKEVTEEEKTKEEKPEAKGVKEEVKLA

HDAC8, sequence (Q9BY41 whole entry): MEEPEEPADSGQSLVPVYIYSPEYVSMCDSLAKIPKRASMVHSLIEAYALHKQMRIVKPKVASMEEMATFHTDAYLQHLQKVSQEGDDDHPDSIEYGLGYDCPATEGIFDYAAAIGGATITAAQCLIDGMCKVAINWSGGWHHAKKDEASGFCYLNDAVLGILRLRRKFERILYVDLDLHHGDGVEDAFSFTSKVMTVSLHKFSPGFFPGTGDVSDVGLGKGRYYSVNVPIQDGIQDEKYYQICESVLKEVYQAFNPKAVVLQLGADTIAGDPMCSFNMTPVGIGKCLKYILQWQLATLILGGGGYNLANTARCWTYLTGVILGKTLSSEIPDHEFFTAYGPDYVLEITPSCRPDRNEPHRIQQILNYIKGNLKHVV

| SMILES | IC50 [1] [µM] | IC50 [2] [µM] |
| --- | --- | --- |
| O=C1CCC(c2ccccc2Cl)N1c1ccc(-c2noc(C(F)(F)F)n2)c(F)c1 (racemic) [Example 37, 5-(2-chlorophenyl)-1-(3-fluoro-4-(5-(trifluoromethyl)-1,2,4-oxadiazol-3-yl)phenyl)pyrrolidin-2-one] | 10 | 16 |
| Cc1noc(C2CCCC(=O)N2c2ccc(-c3noc(C(F)(F)F)n3)cc2)n1 (racemic) [Example 48, 6-(3-methyl-1,2,4-oxadiazol-5-yl)-1-(4-(5-(trifluoromethyl)-1,2,4-oxadiazol-3-yl)phenyl)piperidin-2-one] | 1.8 | 2.2 |
| O=C(C1CCS(=O)(=O)C1)N(Cc1ccc(-c2noc(C(F)(F)F)n2)cn1)c1cccc(F)c1 (racemic) [Example 54, N-(3-fluorophenyl)-N-((5-(5-(trifluoromethyl)-1,2,4-oxadiazol-3-yl)pyridin-2-yl)methyl)tetrahydrothiophene-3-carboxamide 1,1-dioxide] | 2.6 | 0.27 |
| CCN1CCCC(C(=O)N(Cc2ccc(-c3noc(C(F)(F)F)n3)cn2)c2cccc(F)c2)C1 (racemic) [Example 57, 1-ethyl-N-(3-fluorophenyl)-N-((5-(5-(trifluoromethyl)-1,2,4-oxadiazol-3-yl)pyridin-2-yl)methyl)piperidine-3-carboxamide] | 2 | 0.24 |
| CC(C)N1CCCC(C(=O)N(Cc2ccc(-c3noc(C(F)(F)F)n3)cn2)c2cccc(F)c2)C1 (racemic) [Example 61, N-(3-fluorophenyl)-1-isopropyl-N-((5-(5-(trifluoromethyl)-1,2,4-oxadiazol-3-yl)pyridin-2-yl)methyl)piperidine-3-carboxamide] | 2 | 0.26 |
| CC1(C)CC(C(=O)N(Cc2ccc(-c3noc(C(F)(F)F)n3)cn2)c2cccc(F)c2)CCO1 (racemic) [Example 63, N-(3-fluorophenyl)-2,2-dimethyl-N-((5-(5-(trifluoromethyl)-1,2,4-oxadiazol-3-yl)pyridin-2-yl)methyl)tetrahydro-2H-pyran-4-carboxamide] | 1.5 | 0.26 |
| Cc1cn(C(C)C(=O)N(Cc2ccc(-c3noc(C(F)(F)F)n3)cn2)c2cccc(F)c2)nn1 (racemic) [Example 64, N-(3-fluorophenyl)-2-(4-methyl-1H-1,2,3-triazol-1-yl)-N-((5-(5-(trifluoromethyl)-1,2,4-oxadiazol-3-yl)pyridin-2-yl)methyl)propanamide] | 2.8 | 0.2 |
| CC(C(=O)N(Cc1ccc(-c2noc(C(F)(F)F)n2)cc1)c1cccc(C(F)(F)F)c1)n1cncn1 (racemic) [Example 66, 2-(1H-1,2,4-triazol-1-yl)-N-(4-(5-(trifluoromethyl)-1,2,4-oxadiazol-3-yl)benzyl)-N-(3-(trifluoromethyl)phenyl)propanamide] | 1.9 | 0.72 |
| O=C(C1CC1c1cncnc1)N(Cc1ccc(-c2noc(C(F)(F)F)n2)cc1)c1cccc(C(F)(F)F)c1 (racemic) [Example 73, 2-(pyrimidin-5-yl)-N-(4-(5-(trifluoromethyl)-1,2,4-oxadiazol-3-yl)benzyl)-N-(3-(trifluoromethyl)phenyl)cyclopropane-1-carboxamide] | 2.2 | 0.94 |
| CC(Cn1cncn1)C(=O)N(Cc1ccc(-c2noc(C(F)(F)F)n2)cc1)c1cccc(C(F)(F)F)c1 (racemic) [Example 79, 2-methyl-3-(1H-1,2,4-triazol-1-yl)-N-(4-(5-(trifluoromethyl)-1,2,4-oxadiazol-3-yl)benzyl)-N-(3-(trifluoromethyl)phenyl)propanamide] | 3.4 | 1.3 |
| O=C(CC1CNCCO1)N(Cc1ccc(-c2noc(C(F)(F)F)n2)cc1)c1cccc(C(F)(F)F)c1 (racemic) [Example 82, 2-(morpholin-2-yl)-N-(4-(5-(trifluoromethyl)-1,2,4-oxadiazol-3-yl)benzyl)-N-(3-(trifluoromethyl)phenyl)acetamide] | 2.5 | 0.86 |
| O=C(C1COCCO1)N(Cc1ccc(-c2noc(C(F)(F)F)n2)cc1)c1cccc(C(F)(F)F)c1 (racemic) [Example 84, N-(4-(5-(trifluoromethyl)-1,2,4-oxadiazol-3-yl)benzyl)-N-(3-(trifluoromethyl)phenyl)-1,4-dioxane-2-carboxamide] | 2.4 | 0.95 |
| O=C(CC1COCCO1)N(Cc1ccc(-c2noc(C(F)(F)F)n2)cc1)c1cccc(C(F)(F)F)c1 (racemic) [Example 95, 2-(1,4-dioxan-2-yl)-N-(4-(5-(trifluoromethyl)-1,2,4-oxadiazol-3-yl)benzyl)-N-(3-(trifluoromethyl)phenyl)acetamide] | 2 | 1.3 |
| O=C1CCC(c2cccc(Cl)c2)N1c1ccc(-c2noc(C(F)(F)F)n2)cc1F (racemic) [Example 116, 5-(3-chlorophenyl)-1-(2-fluoro-4-(5-(trifluoromethyl)-1,2,4-oxadiazol-3-yl)phenyl)pyrrolidin-2-one] | 14 | 1.6 |
| Fc1ccccc1C1COCCN1c1ccc(-c2noc(C(F)(F)F)n2)cn1 (racemic) [Example 135, 3-(2-fluorophenyl)-4-(5-(5-(trifluoromethyl)-1,2,4-oxadiazol-3-yl)pyridin-2-yl)morpholine] | 1.3 | 0.21 |
| Fc1cccc(C2COCCN2c2ccc(-c3noc(C(F)(F)F)n3)cn2)c1 (racemic) [Example 137, 3-(3-fluorophenyl)-4-(5-(5-(trifluoromethyl)-1,2,4-oxadiazol-3-yl)pyridin-2-yl)morpholine] | 2.3 | 0.44 |

| SMILES | IC50 [1] [µM] | IC50 [2] [µM] |
| --- | --- | --- |
| Fc1ccc(C2COCCN2c2ccc(-c3noc(C(F)(F)F)n3)cn2)cc1 (racemic) [Example 142, 3-(4-fluorophenyl)-4-(5-(5-(trifluoromethyl)-1,2,4-oxadiazol-3-yl)pyridin-2-yl)morpholine] | 1.9 | 0.5 |
| CC(C)(C)OC(=O)N1CC(=O)N(c2ccc(-c3noc(C(F)(F)F)n3)cc2)[C@H](c2ccccc2)C1 (racemic) [Example 163, tert-butyl 3-oxo-5-phenyl-4-(4-(5-(trifluoromethyl)-1,2,4-oxadiazol-3-yl)phenyl)piperazine-1-carboxylate] | 4.3 | 1.7 |
| FC(F)(F)c1nc(-c2ccnc(OC3CCCc4ccc(Cl)nc43)c2)no1 (racemic) [Example 226, 2-chloro-8-({4-[5-(trifluoromethyl)-1,2,4-oxadiazol-3-yl]pyridin-2-yl}oxy)-5,6,7,8-tetrahydroquinoline] | 0.85 | 1.1 |
| CC1(C)CC(c2ccccc2)N(c2ccc(-c3noc(C(F)(F)F)n3)cc2F)C1=O (racemic) [Example 312, 1-{2-fluoro-4-[5-(trifluoromethyl)-1,2,4-oxadiazol-3-yl]phenyl}-3,3-dimethyl-5-phenylpyrrolidin-2-one] | 45 | 1.4 |
| O=C1CCC(c2c(F)cccc2F)N1c1ccc(-c2noc(C(F)(F)F)n2)cc1F (racemic) [Example 314, 5-(2,6-difluorophenyl)-1-{2-fluoro-4-[5-(trifluoromethyl)-1,2,4-oxadiazol-3-yl]phenyl}pyrrolidin-2-one] | 6.5 | 11 |
| COc1ccccc1C1CCC(=O)N1c1ccc(-c2noc(C(F)(F)F)n2)cc1F (racemic) [Example 315, 1-{2-fluoro-4-[5-(trifluoromethyl)-1,2,4-oxadiazol-3-yl]phenyl}-5-(2-methoxyphenyl)pyrrolidin-2-one] | 8 | 2.1 |
| Cc1noc([C@H]2CCCCN2c2ccc(-c3noc(C(F)(F)F)n3)cn2)n1 [Example 138, (R)-3-methyl-5-(1-(5-(5-(trifluoromethyl)-1,2,4-oxadiazol-3-yl)pyridin-2-yl)piperidin-2-yl)-1,2,4-oxadiazole] | 1.2 | – |
| FC(F)(F)c1nc(-c2ccc(N3CCOC[C@H]3c3ccccc3)nc2)no1 [Example 144, (R)-3-phenyl-4-(5-(5-(trifluoromethyl)-1,2,4-oxadiazol-3-yl)pyridin-2-yl)morpholine] | 2.7 | – |
| Cc1cc(=O)n2c(n1)CN(c1ccc(-c3noc(C(F)(F)F)n3)cn1)CC2 [Example 158, 2-methyl-8-(5-(5-(trifluoromethyl)-1,2,4-oxadiazol-3-yl)pyridin-2-yl)-6,7,8,9-tetrahydro-4H-pyrazino[1,2-a]pyrimidin-4-one] | 0.75 | – |
| O=C1CCc2ccc(F)cc2N1Cc1ccc(-c2noc(C(F)(F)F)n2)cc1 [Example 318, 7-fluoro-1-{4-[5-(trifluoromethyl)-1,2,4-oxadiazol-3-yl]benzyl}-3,4-dihydroquinolin-2(1H)-one] | 1.8 | – |
| FC(F)(F)c1nc(-c2ccc(CNc3cc[nH]n3)nc2)no1 [Example 432, N-({5-[5-(trifluoromethyl)-1,2,4-oxadiazol-3-yl]pyridin-2-yl}methyl)-1H-pyrazol-3-amine] | 1.3 | – |
| O=C(c1cccc(NCc2ccc(-c3noc(C(F)(F)F)n3)cn2)c1)N1CCCC1 [Example 439, 3-(pyrrolidin-1-ylcarbonyl)-N-({5-[5-(trifluoromethyl)-1,2,4-oxadiazol-3-yl]pyridin-2-yl}methyl)aniline] | 1.4 | – |
| O=C(Nc1ccccc1)c1cccc(NCc2ccc(-c3noc(C(F)(F)F)n3)cn2)c1 [Example 440, N-phenyl-3-[({5-[5-(trifluoromethyl)-1,2,4-oxadiazol-3-yl]pyridin-2-yl}methyl)amino]benzamide] | 0.28 | – |
| O=C(NCc1ccccc1)c1ccccc1NCc1ccc(-c2noc(C(F)(F)F)n2)cn1 [Example 448, N-benzyl-2-[({5-[5-(trifluoromethyl)-1,2,4-oxadiazol-3-yl]pyridin-2-yl}methyl)amino]benzamide] | 0.53 | – |
| CC(=O)N1CCC(CNCc2ccc(-c3noc(C(F)(F)F)n3)cn2)CC1 [Example 455, 1-(1-acetylpiperidin-4-yl)-N-({5-[5-(trifluoromethyl)-1,2,4-oxadiazol-3-yl]pyridin-2-yl}methyl)methanamine] | 3.8 | – |
